Data: patent US4505853A, “Enzyme-resistant immunomodulatory peptides” (Ortho Pharmaceutical Corporation, priority 1983, dated 1985)
Where a SMILES comes first, the peptide text is derived from it. Where no end group is shown, it is not given here. [ ]: non-standard residue; d: D form. The star is where a group is joined. Ac5c = NC1(C(=O)O)CCCC1; For = O=C*

What was measured:
[1] = target: T1, porcine LAPcytosol (Leucine Aminopeptidase) (Sus scrofa, UniProt P28839); test: Stability of peptides against leucine aminopeptidase; type: in vitro ADME; settings: 1 × 10^-3 M peptide and 3 units/ml porcine LAPcytosol in 50 mM Tris pH 8.5 buffer with 5 mM MgCl2 at 37°
T1 sequence (P28839 1-519): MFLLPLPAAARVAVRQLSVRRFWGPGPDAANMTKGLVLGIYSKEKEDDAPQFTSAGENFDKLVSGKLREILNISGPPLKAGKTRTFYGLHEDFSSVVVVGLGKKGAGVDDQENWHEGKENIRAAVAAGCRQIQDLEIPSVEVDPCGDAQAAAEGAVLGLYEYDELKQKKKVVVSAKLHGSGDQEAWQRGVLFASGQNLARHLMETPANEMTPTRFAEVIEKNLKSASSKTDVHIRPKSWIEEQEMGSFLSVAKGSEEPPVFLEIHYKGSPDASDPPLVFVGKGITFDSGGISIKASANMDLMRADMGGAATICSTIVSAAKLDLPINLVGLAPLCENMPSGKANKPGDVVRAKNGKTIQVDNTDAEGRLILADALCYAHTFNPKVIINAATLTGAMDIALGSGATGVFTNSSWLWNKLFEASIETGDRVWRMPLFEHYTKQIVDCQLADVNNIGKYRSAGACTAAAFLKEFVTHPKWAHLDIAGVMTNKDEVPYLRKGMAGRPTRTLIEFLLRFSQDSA
Experimental: (§1) It has been determined that the half-life of thymopentin (thymopoeitin fragment 32-36) in serum is approximately one minute.
*1 × 10^-3 M peptide and 3 units/ml porcine LAPcytosol in 50 mM
Tris pH 8.5 buffer with 5 mM MgCl2 at 37°

[2] = Stability of peptides against human serum; type: in vitro ADME; settings: 1 μg/ml peptide in fresh human serum at 37°
Experimental: as §1
*1 μg/ml peptide in fresh human serum at 37°

[3] = target: T2, bovine carboxypeptidase A (Bos taurus, UniProt P00730); test: Stability of peptides against carboxypeptidase A; type: in vitro ADME; settings: 1 × 10^-3 M peptide and 0.05 units/ml bovine carboxypeptidase in pH 8.5 borate buffer at 37°
T2 sequence (P00730 111-419): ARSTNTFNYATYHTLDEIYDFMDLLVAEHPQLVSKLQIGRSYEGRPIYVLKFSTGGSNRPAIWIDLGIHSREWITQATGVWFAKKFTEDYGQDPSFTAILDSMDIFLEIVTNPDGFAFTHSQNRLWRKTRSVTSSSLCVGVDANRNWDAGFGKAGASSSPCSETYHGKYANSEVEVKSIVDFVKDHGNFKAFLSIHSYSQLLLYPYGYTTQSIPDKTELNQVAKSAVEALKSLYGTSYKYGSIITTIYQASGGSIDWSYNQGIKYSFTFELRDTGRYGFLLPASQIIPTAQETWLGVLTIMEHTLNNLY
Experimental: as §1
*1 × 10^-3 M peptide and 0.05 units/ml bovine carboxypeptidase
in pH 8.5 borate buffer at 37°

[4] = test system: thymopoeitin receptor site (membrane glycoprotein of CEM cells); settings: 2.3×10^-10 M of 125I-TP, 4 g of binding protein, incubation 12 h
[5] = Enzymatic degradation / half-life in serum; type: in vitro ADME
From the text: as §1

[6] = test system: Leucine Amino Peptidase (LAP); test: Leucine Amino Peptidase (LAP) Degradation, amino acid analysis; type: in vitro ADME; settings: Asp, Pro, Val, Tyr, Arg all 0.00
From the text: Leucine Amino Peptidase (LAP) Degradation Asp, 0.00; Pro, 0.00; Val, 0.00; Tyr, 0.00; Arg.

Prothymocytes (Thy-1^-) = test: Induction assay, Thy-1+ T cells; type: cell-based; settings: B6-lyb-2.1 congenic mouse spleen cells, 3 hrs with inducer; controls without inducer <5% induced cells
Experimental: (§2) The compounds of the invention were tested following the induction assay procedure set out in Scheid, et al., J. Exp. Med. 147: 1727-1743 (1978) and also following a receptor assay procedure designed to measure displacement of radiolabelled thymopoeitin from a receptor site by the test peptides. A positive result on the induction assay indicates the ability of the test peptide to mimic the ability of thymopoeitin or splenin to induce precursor cells to immunocompetent T cells or T cells and B cells, respectively. A positive result on the receptor assay indicates the ability of the test peptide to bind to the thymopoeitin receptor site and thus to mimic thymopoeitin activity. The subject peptides are positive in the induction assay, while those in which X is ASP or D-ASP are also positive in the receptor assay.
(§3) The peptides of the invention wherein X is ASP or D-ASP are characterized by their ability to induce the selective differentiation of Thy-1^+ T cells (but not Lyb-2^+ B cells). Thy-1 is a differentiation alloantigen present on T cells but not B cells, whereas Lyb-2 is a differentiation alloantigen present on B cells but not T cells. Studies of these peptides in the induction assay in vitro show them to have the same induction specificity as thymopoietin. […]

pro-Lyb-2 cells = test: Induction assay, Lyb-2+ B cells; type: cell-based; settings: B6-lyb-2.1 congenic mouse spleen cells, 3 hrs with inducer; controls without inducer <5% induced cells
Experimental: as §2, §3

Ac-RPDVY-NH2 [N--Acetyl-Arg--Pro--Asp--Val--Tyr--NH2, N^α -acetyl-Arginyl-Prolyl-Aspartyl-Valyl-Tyrosine amide]
Incubation time required for 50% degradation [1]: > 1400 min | Degradation in human serum, in words ([2]; at 30 minutes): no degradation | Incubation time required for 50% degradation [3]: > 1500 min | displacement of 125I-TP relative to that caused by thymopoietin self-displacement at equivalent concentrations [4]: ≥ 50%

CRF: corticotropin-releasing factor (SEEPPISLDLTFHLLREVLEMARAEQLAQQAHSNRKLMEII; ends and bridges not checked; UniProt P06850 154-194, looked up) [reference compound]
displacement of 125I-TP / receptor assay result, in words [4]: no detectable displacement

Ac-RPDQY [N-α-acetyl-ARG-PRO-ASP-GLN-TYR-OH, Nα-acetyl-Arginyl-Prolyl-Aspartyl-Glutaminyl-Tyrosine]
displacement of 125I-TP relative to that caused by thymopoietin self-displacement at equivalent concentrations [4]: ≥ 50%

β-endorphin: comparison peptide in the receptor assay (YGGFMTSEKSQTPLVTLFKNAIIKNAYKKGE; Beta-endorphin; UniProt P01189 237-267, looked up) [reference compound]
displacement of 125I-TP / receptor assay result, in words [4]: no detectable displacement

CC(C)[C@H](NC(=O)[C@H](CC(=O)O)NC(=O)[C@@H]1CCCN1C(=O)[C@H](CCCNC(=N)N)NC=O)C(=O)N[C@@H](Cc1ccc(O)cc1)C(=O)O [N-α-formyl-ARG-PRO-ASP-VAL-TYR-OH, N^α -Formyl-Arginyl-Prolyl-Aspartyl-Valyl-Tyrosine] (For-RPDVY-OH)
displacement of 125I-TP relative to that caused by thymopoietin self-displacement at equivalent concentrations [4]: ≥ 50%

Ac-RPDEY [N-α-acetyl-ARG-PRO-ASP-GLU-TYR-OH, N^α -Acetyl-Arginyl-Prolyl-Aspartyl-Glutamyl-Tyrosine]
displacement of 125I-TP relative to that caused by thymopoietin self-displacement at equivalent concentrations [4]: ≥ 50%

CC(C)[C@H](NC(=O)[C@H](CC(=O)O)NC(=O)C1(NC(=O)[C@@H](N)CCCNC(=N)N)CCCC1)C(=O)N[C@@H](Cc1ccc(O)cc1)C(=O)O [NH2 --Arg--Cle--Asp--Val--Tyr--OH, Arginyl-Cycloleucyl-Aspartyl-Valyl-Tyrosine] (H-R[Ac5c]DVY-OH)
Incubation time required for 50% degradation [1]: > 1400 min

RKDVY [NH2 --Arg--Lys--Asp--Val--Tyr--OH, reference compound]
Incubation time required for 50% degradation [1]: 15 min | Incubation time required for 50% degradation [2]: 1.5 min | Incubation time required for 50% degradation [3]: 18 min | half-life in serum ([5]; serum): approximately one

growth hormone: comparison peptide in the receptor assay [reference compound]
displacement of 125I-TP / receptor assay result, in words [4]: no detectable displacement

RPDVY-NH2 [NH2 --Arg--Pro--Asp--Val--Tyr--NH2, Arginyl-Prolyl-Aspartyl-Valyl-Tyrosinamide]
Incubation time required for 50% degradation [2]: > 20 min | Incubation time required for 50% degradation [3]: > 450 min | displacement of 125I-TP relative to that caused by thymopoietin self-displacement at equivalent concentrations [4]: ≥ 50%

ACTH: adrenocorticotropic hormone (SYSMEHFRWGKPVGKKRRPVKVYPNGAEDESAEAFPLEF; Corticotropin; UniProt P01189 138-176, looked up) [reference compound]
displacement of 125I-TP / receptor assay result, in words [4]: no detectable displacement

Ac-RPDVY [N--Acetyl-Arg--Pro--Asp--Val--Tyr--OH, Nα-Acetyl-Arginyl-Prolyl-Aspartyl-Valyl-Tyrosine]
Incubation time required for 50% degradation [2]: 38 min | displacement of 125I-TP relative to that caused by thymopoietin self-displacement at equivalent concentrations [4]: ≥ 50%

CNC(=O)[C@H](Cc1ccc(O)cc1)NC(=O)[C@@H](NC(=O)[C@H](CC(=O)O)NC(=O)[C@@H]1CCCN1C(=O)[C@H](CCCNC(=N)N)NC(C)=O)C(C)C [N-α-acetyl-ARG-PRO-ASP-VAL-TYR-NHCH3, Nα-Acetyl-Arginyl-Prolyl-Aspartyl-Valyl-Tyrosine-N-Methylamide] (Ac-RPDVY-NHMe)
displacement of 125I-TP relative to that caused by thymopoietin self-displacement at equivalent concentrations [4]: ≥ 50%

CC(=O)N[C@@H](CCCNC(=N)N)C(=O)N1CCC[C@H]1C(=O)N[C@@H](CC(=O)O)C(=O)N[C@H](C(=O)N[C@H](Cc1ccc(O)cc1)C(=O)O)C(C)C [IX, Nα-Acetyl-Arginyl-Prolyl-Aspartyl-Valyl-D-Tyrosine] (Ac-RPDV[dY]-OH)
amino acids liberated by Leucine Amino Peptidase (LAP) [6]: no liberated amino acids were detected

RKEVY [Splenopentin]
susceptibility to enzymatic degradation [5]: highly susceptible to enzymatic degradation

YRKDV [NH2 -TYR-ARG-LYS-ASP-VAL-OH]
induction of Thy-1^+ cells (T cells) (Prothymocytes (Thy-1^-)): no induction | induction of Lyb-2.1^+ cells (B cells) (pro-Lyb-2 cells): no induction

C[C@H](N)C(=O)NCC(=O)N[C@H]1CSSC[C@@H](C(=O)O)NC(=O)[C@H](CO)NC(=O)[C@H]([C@@H](C)O)NC(=O)[C@H](Cc2ccccc2)NC(=O)[C@H]([C@@H](C)O)NC(=O)[C@H](CCCCN)NC(=O)[C@H](Cc2c[nH]c3ccccc23)NC(=O)[C@H](Cc2ccccc2)NC(=O)[C@H](Cc2ccccc2)NC(=O)[C@H](CC(N)=O)NC(=O)[C@H](CCCCN)NC1=O [somatostatin, reference compound]
displacement of 125I-TP / receptor assay result, in words [4]: no detectable displacement

RPDVY [NH2 --Arg--Pro--Asp--Val--Tyr--OH]
Incubation time required for 50% degradation [1]: 230 min

ubiquitin [reference compound]
displacement of 125I-TP / receptor assay result, in words [4]: no detectable displacement

Ac-RPDAY [N-α-acetyl-ARG-PRO-ASP-ALA-TYR-OH, Nα-Acetyl-Arginyl-Prolyl-Aspartyl-Alanyl-Tyrosine]
displacement of 125I-TP relative to that caused by thymopoietin self-displacement at equivalent concentrations [4]: ≥ 50%
